Values joined by “and” are separate entries in the source; they are usually repeats but may differ in a detail not shown here. Equal entries are not always repeated.
Conditions: Crystal, Torsion effusion method

[I][Lu]([I])[I] [lutetium triiodide]
Conditions | vapor or sublimation pressure
862 K | 3e-05 kPa
875 K | 6e-05 kPa
883 K | 7.6e-05 kPa
888 K | 8.9e-05 kPa
892 K | 7.6e-05 kPa
893 K | 0.000105 kPa
894 K | 0.00012 kPa
895 K | 0.00012 kPa
896 K | 0.000151 kPa
897 K | 0.00012 kPa
898 K | 0.000151 kPa
899 K | 0.000151 kPa
900 K | 0.000105 kPa
901 K | 0.00012 kPa
904 K | 0.000151 kPa and 0.000182 kPa
905 K | 0.000182 kPa
906 K | 0.000224 kPa and 0.000166 kPa
909 K | 0.000209 kPa and 0.000151 kPa and 0.000166 kPa
911 K | 0.00024 kPa and 0.000195 kPa
912 K | 0.000209 kPa
913 K | 0.00024 kPa
915 K | 0.000269 kPa
916 K | 0.000302 kPa and 0.00024 kPa
917 K | 0.000347 kPa
918 K | 0.00024 kPa
919 K | 0.000209 kPa
920 K | 0.000269 kPa and 0.000288 kPa
921 K | 0.000331 kPa
923 K | 0.000372 kPa
924 K | 0.000363 kPa
926 K | 0.000269 kPa and 0.000447 kPa
927 K | 0.000347 kPa
928 K | 0.000513 kPa and 0.000363 kPa and 0.000389 kPa
929 K | 0.000389 kPa
931 K | 0.000513 kPa
932 K | 0.000501 kPa
933 K | 0.000575 kPa
935 K | 0.000537 kPa
936 K | 0.000513 kPa
937 K | 0.000513 kPa
938 K | 0.000724 kPa [middle of 4 runs]
940 K | 0.000692 kPa
942 K | 0.000759 kPa
943 K | 0.000759 kPa and 0.000692 kPa
945 K | 0.000692 kPa and 0.000575 kPa and 0.000724 kPa
948 K | 0.001047 kPa and 0.000776 kPa
949 K | 0.000933 kPa
950 K | 0.001023 kPa
951 K | 0.001072 kPa and 0.000891 kPa
952 K | 0.001122 kPa
953 K | 0.000933 kPa
954 K | 0.001 kPa
955 K | 0.000832 kPa
958 K | 0.001413 kPa and 0.001445 kPa and 0.001148 kPa
959 K | 0.001445 kPa and 0.00123 kPa
960 K | 0.001514 kPa
961 K | 0.001479 kPa
962 K | 0.001349 kPa
963 K | 0.001413 kPa
964 K | 0.00123 kPa
967 K | 0.00195 kPa and 0.001622 kPa
968 K | 0.002239 kPa and 0.001995 kPa
969 K | 0.001622 kPa
970 K | 0.002138 kPa
972 K | 0.001905 kPa and 0.002239 kPa and 0.00182 kPa
974 K | 0.001738 kPa
975 K | 0.002138 kPa
976 K | 0.002951 kPa and 0.00257 kPa
977 K | 0.002884 kPa and 0.002138 kPa
978 K | 0.002455 kPa
979 K | 0.002291 kPa and 0.002951 kPa
983 K | 0.002951 kPa and 0.002399 kPa
985 K | 0.003631 kPa and 0.003162 kPa and 0.003236 kPa
986 K | 0.003981 kPa and 0.003715 kPa
987 K | 0.00302 kPa
991 K | 0.004266 kPa
993 K | 0.004677 kPa and 0.00389 kPa
994 K | 0.004074 kPa and 0.003388 kPa and 0.004169 kPa
995 K | 0.005012 kPa and 0.003631 kPa
996 K | 0.005012 kPa
1004 K | 0.00631 kPa and 0.005623 kPa

— the NIST ThermoML archive (doi:10.1021/je049579x)
